The text below walks through data of ChEMBL document CHEMBL1140199, “Synthesis and antimicrobial activity of 2-alkenylchroman-4-ones, 2-alkenylthiochroman-4-ones and 2-alkenylquinol-4-ones” (2008).

≈ marks a conversion by molar mass, not a printed value. Calls of active or inactive are those of the source. No cut-off for these calls is given here.

Holding throughout (format): functional
Assay [1] has as its system Escherichia coli. Description: Antimicrobial activity against Escherichia coli ATCC 11229.
Assay [2] relates to Candida maltosa. Description: Antimicrobial activity against Candida maltosa.
Assay [3] concerns Staphylococcus aureus. The assay can be described thus: Antimicrobial activity against Staphylococcus aureus ATCC 6538. As to conditions: for MIC: Staphylococcus aureus, ATCC 6538.
In assay [4] the test system is Bacillus subtilis. Description: Antimicrobial activity against Bacillus subtilis ATCC 6051.

Take `C/C=C/C1CC(=O)c2cc(Br)ccc2O1` (stereo not given): the “inhibition zone (IZ)” value in assay [1] worked out at 9 mm. Further, the outcome in assay [2], in assay [3] and in assay [4] was inactive.
Turning to `C=CC1CC(=O)c2cc(Cl)ccc2S1` (stereo not given), the result in assay [1], in assay [3] and in assay [4] was inactive. Also, the “inhibition zone (IZ)” value in assay [2] is 6 mm.
On to `C=C(C)C1CC(=O)c2cc(Cl)ccc2N1C(=O)OC` (stereo not given), for which the result in assay [1], in assay [2], in assay [3] and in assay [4] was inactive.
Turning to `C=C(C)C1CC(=O)c2ccccc2O1` (stereo not given), in assay [1], the “inhibition zone (IZ)” value is listed as 10 mm. Also, the outcome in assay [2], in assay [3] and in assay [4] was inactive.
Regarding `C/C=C/C1CC(=O)c2cc(Cl)ccc2O1` (stereo not given), the “inhibition zone (IZ)” value in assay [1] turned out to be 10 mm. Moreover, the result in assay [2], in assay [3] and in assay [4] was inactive.
As to `C=CC1CC(=O)c2c(Cl)cc(Cl)cc2N1C(=O)OC` (stereo not given), the result in assay [1], in assay [2], in assay [3] and in assay [4] was inactive.
In the case of `C=CC1CC(=O)c2cc(Br)ccc2N1C(=O)OC` (stereo not given), the outcome in assay [1], in assay [2], in assay [3] and in assay [4] was inactive.
The MIC is the lowest concentration that inhibits growth of the organism. A low value points to a more susceptible organism. For `C=CC1CC(=O)c2cc(Cl)ccc2O1` (stereo not given), the “inhibition zone (IZ)” value in assay [1] was 17 mm; in assay [2] it was 40 mm; in assay [3], 40 mm; in assay [4], 29 mm. The MIC in assay [1] (Escherichia coli, ATCC 11229) was found to be 4.17 mg/L (≈ 20 µM); in assay [3] it was 7.3 mg/L (≈ 35 µM); in assay [4] (Bacillus subtilis, ATCC 6051) it was 4.17 mg/L (≈ 20 µM).
Consider `C=C(C)C1CC(=O)c2ccccc2S1` (stereo not given), for which the result in assay [1], in assay [2], in assay [3] and in assay [4] was inactive.
On to `C=C(C)C1CC(=O)c2cc(Cl)ccc2S1` (stereo not given), for which the result in assay [1], in assay [2], in assay [3] and in assay [4] was inactive.
As to `C=CC1CC(=O)c2ccccc2S1` (stereo not given), the outcome in assay [1], in assay [3] and in assay [4] was inactive. Also, the “inhibition zone (IZ)” value in assay [2] turned out to be 6 mm.
Regarding `C=C(C)C1CC(=O)c2cc(Br)ccc2O1` (stereo not given), the “inhibition zone (IZ)” value worked out at 8 mm in assay [1] and 16 mm in assay [3]. Also, the outcome in assay [2] and in assay [4] was inactive.
`C=CC1CC(=O)c2cc(F)ccc2N1C(=O)OC` (stereo not given): the outcome in assay [1], in assay [2], in assay [3] and in assay [4] was inactive.
On to `CC1(C)S[C@@H]2[C@H](NC(=O)[C@H](N)c3ccccc3)C(=O)N2[C@H]1C(=O)O` [AMPICILLIN], for which the “inhibition zone (IZ)” value in assay [1] is reported as 19 mm; in assay [3], 27 mm; in assay [4], 25 mm.
On to `C=CC1CC(=O)c2cc(Br)ccc2O1` (stereo not given), for which, in assay [3], inhibition of growth (MIC) required 5.62 mg/L (≈ 22.2 µM).
Regarding NYSTATIN, the inhibition zone (IZ) in assay [2] worked out at 28 mm.
With `C/C=C(\C)C1CC(=O)c2cc(Cl)ccc2O1` (stereo not given), the outcome in assay [1], in assay [2], in assay [3] and in assay [4] was inactive.
With `C=C(C)C1CC(=O)c2cc(Cl)ccc2O1` (stereo not given), the “inhibition zone (IZ)” value in assay [1] came to 9 mm; in assay [3], 17 mm. Moreover, the result in assay [2] and in assay [4] was inactive.
On to `C=CC1CC(=O)c2ccccc2O1` (stereo not given), for which the result in assay [1], in assay [2], in assay [3] and in assay [4] was inactive.
Turning to `C=CC1CC(=O)c2cc(Cl)ccc2N1C(=O)OC` (stereo not given), the result in assay [1], in assay [2], in assay [3] and in assay [4] was inactive.
Turning to `C/C=C(\C)C1CC(=O)c2cc(Br)ccc2O1` (stereo not given), the outcome in assay [1], in assay [2], in assay [3] and in assay [4] was inactive.
